# Assay results reported in patent US9671340B2, “Measurement method for determining an organ function” (SMARTDYELIVERY GMBH, priority 2010, dated 2017).
# Read-outs that look alike come from different tables or passages of the source.
# How the values were obtained:
# [1] = rat, in vivo
# Description: (§1) Male WISTAR rats (12-16 weeks old, body mass 400±50 g; Harlan Laboratories, Horst, Netherlands) were used in this study. All tests were carried out in accordance with the German laws for the protection of animals and with the approval of the regional animal protection commission in Bad Langensalza, Thuringia, Germany. The body temperature was kept constant at 37° during the surgical preparation and the experimental tests, in each case using a warming plate and a heatable specimen stage of the microscope. All preparations were carried out under aseptic conditions.
# A special model of polymicrobial sepsis with some modifications was used, which was originally described by Bauhofer (Bauhofer et al., 2004, 2006; Lorenz et al., 2004). With this model the sepsis is induced by peritoneal contamination and infection (PCI).
# A standardised human stool inoculum was used for the PCI. Immediately after collection, the stool sample was diluted 1:1 with pre-reduced thioglycolate-bouillion, containing 10% sterile barium sulphate and 10% glycerol, and was then homogenised under anaerobic conditions. Lastly, the stool samples were stored at −80° C. until use. Before the inoculation, the stool samples were diluted 1:4 in 0.9% NaCl. The inoculum was analysed microbiologically in order to establish the number of strains after storage. The rats were instrumented 24 h before the PCI and anaesthetised using Desflurane (Baxter, Munich, Germany) via a facemask. A jugular vein catheter (polyethylene, autoclave-sterilised, OD:1.0 mm, Portex, UK) was used for the fluid replacement and was tunneled subcutaneously as far as the approach to the nape of the neck. The catheter was mounted on a hinge-jointed retaining system, which enabled unrestricted movement in the cage after recovery from the anaesthetic.
# In introductory studies, the dose of the inoculum was adapted such that a 100% mortality rate was achieved within 40 h. The animals were assigned randomly to the control group (sham) or the PCI group. With short ether anaesthesia, the inoculum was injected intraperitoneally into the pelvis region using a 21 G cannula. The animals in the control group (sham) received 0.9% NaCl in the same amount. After the procedure, both groups received fluid replacement (10 ml/kg/KG/h, Jonosteril®, Fresenius Kabi GmbH, Germany) as well as food and water ad libitum.
# The plasma disappearance rate (PDR) and the bile excretion of the dyes DY635 (Dyomics, Jena, Germany) and indocyanine green as a comparative experiment (ICG; Pulsion, Munich, Germany) were determined in vivo.
# The animals were anaesthetised 15 h after sepsis or induction of the control group.
# An arterial catheter was used for haemodynamic monitoring. A midline and right subcostal laparotomy was performed and the ductus choledochus was provided with a polyethylene catheter (polyethylene, autoclave-sterilised, OD:1.0 mm, Portex, UK) for the collection of bile via a cannula. The wound was then closed using Mersilene 2-0 (Ethicon, Hamburg, Germany) and the anaesthetisation was maintained.
# The dye was administered via a jugular vein catheter. The blood samples and bile samples were taken from the zero point and then every 15 min for a period of 60 min. Blood losses caused by these blood samples were adequately counter balanced by infusions. The haemodynamic monitoring was carried out continuously.
# [2] = In vivo determination of hepatocellular and canalicular transport by intravital epifluorescence microscopy of the liver; design: species or system WISTAR rats; details: periportal and perivenous areas, up to 35 min after application
# Description: Changes to the hepatocellular uptake and the canalicular elimination were measured 15 h after sepsis or induction of the control group by in vivo imaging of the exclusively hepatocytically eliminated dye indocyanine green (Pulsion, Munich, Germany) and of DY635 using an inverted epiflourescence microscope (AxioObserver® Z1; Zeiss, Jena, Germany), equipped with a computer-controlled, highly-precise scanning platform (Marzhäuser, Wetzlar, Germany).
# 775 nm to 805 nm excitation and 845 nm to 855 nm emission bandpass filters were used to image the dye indocyanine green. […]
# In order to locate 16 regions (regions of interest: ROI) for the in vivo imagings of the dye, the liver surface was rasterised; 8 pericentral and 8 periportal regions were established and the exact position thereof was determined on the computer-controlled scanning stage using AxioVision® software and stored so that the predefined ROI were accessible during future experiments. […]
# Before the indocyanine green or DY635 was added, base line images of the defined ROI were recorded using the AxioVision® multi-channel module (×40/0.6 lens, 365 nm to 395 nm excitation and 445 nm to 450 nm emission bandpass filter and 775 nm to 805 nm excitation and 845 nm to 855 nm emission bandpass filter). […]
# cultivated hepatocytes = assay: Cytotoxicity, survival of cultivated hepatocytes 24 h after addition of dye (MTT assay); type: cell-based
# Description: FIG. 6: comparison of the cytotoxicity between ICG and DY635. In each case the survival of cultivated hepatocytes 24 h after addition of different concentration of the dyes is shown (MTT assay).
# [3] = Water solubility of the dye; type: physicochemical
# [4] = In vivo determination of kidney function, imaging of dye excretion via the kidneys; design: species or system WISTAR rats
# Description: as §1
# Further experiments were carried out to ascertain kidney function using DY652 (data not shown here) and DY647.
# The kidney tissue and the widely ramified kidney vascular system can be seen in the recorded images.
# FIG. 7: in vivo imaging of the excretion of DY647 via the kidneys.
# [5] = at clinically conventional dose; cited from earlier work
# [6] = cited from earlier work
smiles,measurement,setting,value
CC(C)(C)c1cc(/C=C/C=C2/N(CCCCCC(=O)O)c3ccc(S(=O)(=O)O)cc3C2(C)C)c2cc3c4c(c2[o+]1)CCCN4CCC3 [DY635],"plasma concentration of the dye immediately after application, septic vs control animals","[1]; male, Wistar",Less DY635 in the plasma was traceable in the healthy animals than in the sick animals
same,time to complete uptake of the dye into the hepatocytes,"[1]; male, Wistar",≤ 15 min
same,"accumulation of the dye in healthy animals, compared with ICG",[1],accumulates much less considerably in healthy animals than ICG
same,detection of the dye in the kidneys or in the urine,[1],could not be detected
same,"speed of canalicular excretion into the bile fluid, compared with ICG",[1],excreted more quickly
same,"decrease of specific fluorescence intensity (dye concentration) in the organ tissue, compared with ICG",[2],decreases much more sharply
same,cytotoxicity in comparison with ICG,cultivated hepatocytes,very low cytotoxicity
"CCN1/C(=C/C=C/C=C/C2=[N+](CC)c3ccc(S(=O)(=O)O)cc3C2(C)C)C(C)(CCCC(=O)O)c2cc(S(=O)(=O)O)ccc21 (stereo not drawn) [DY647, 2-{(1E,3E)-5-(3-(3-carboxy-propyl)-1-ethyl-3-methyl-5-sulfo-1,3-dihydro-indol-(2E)-ylidene]-penta-1,3-dienyl)-1-ethyl-3,3-dimethyl-5-sulfo-3H-indolium]",solubility in water,[3],water-soluble
same,location of the dye in the kidneys,[4]; 5 minutes after application,can be seen in the vascular system of the kidneys
same,location of the dye in the kidneys,[4]; after 90 minutes,has left the vascular system and can be seen in the kidney tubules
same,detection of the dye in urine after application,[4]; after application,detected in urine
same,route of excretion,[4]; in vivo measurements of the kidneys,excreted selectively via the kidneys
"CC1(C)C(/C=C/C=C/C=C/C=C2\N(CCCCS(=O)(=O)O)c3ccc4ccccc4c3C2(C)C)=[N+](CCCCS(=O)(=O)[O-])c2ccc3ccccc3c21 [ICG, indocyanine green]",toxicity,[5],negligible toxicity
same,dye concentration in the bile after 60 minutes,[1],high ICG values could still be measured
same,"plasma concentration of the dye immediately after application, septic vs control animals",[1],Less ICG can be traced in the plasma of the septic animals
same,metabolism and extrahepatic elimination,[6]; current state of knowledge,neither metabolised nor eliminated extrahepatically
same,time until the dye appears unconjugated in the bile,[6]; following intravenous injection (0.1-0.5 mg/kg KG),approximately 8 min
same,binding to plasma proteins,"[6]; following intravenous injection, within a short period of time",fully bonded to plasma proteins
